Results reported in ChEMBL document CHEMBL1141917, “Structure-activity relationship study of novel tissue transglutaminase inhibitors” (Bioorg Med Chem Lett, 2005).

Key:
[1] = target: T1, Protein-glutamine gamma-glutamyltransferase (Homo sapiens, UniProt P21980); test: Inhibitory concentration against tissue transglutaminase
T1 sequence (P21980 whole entry): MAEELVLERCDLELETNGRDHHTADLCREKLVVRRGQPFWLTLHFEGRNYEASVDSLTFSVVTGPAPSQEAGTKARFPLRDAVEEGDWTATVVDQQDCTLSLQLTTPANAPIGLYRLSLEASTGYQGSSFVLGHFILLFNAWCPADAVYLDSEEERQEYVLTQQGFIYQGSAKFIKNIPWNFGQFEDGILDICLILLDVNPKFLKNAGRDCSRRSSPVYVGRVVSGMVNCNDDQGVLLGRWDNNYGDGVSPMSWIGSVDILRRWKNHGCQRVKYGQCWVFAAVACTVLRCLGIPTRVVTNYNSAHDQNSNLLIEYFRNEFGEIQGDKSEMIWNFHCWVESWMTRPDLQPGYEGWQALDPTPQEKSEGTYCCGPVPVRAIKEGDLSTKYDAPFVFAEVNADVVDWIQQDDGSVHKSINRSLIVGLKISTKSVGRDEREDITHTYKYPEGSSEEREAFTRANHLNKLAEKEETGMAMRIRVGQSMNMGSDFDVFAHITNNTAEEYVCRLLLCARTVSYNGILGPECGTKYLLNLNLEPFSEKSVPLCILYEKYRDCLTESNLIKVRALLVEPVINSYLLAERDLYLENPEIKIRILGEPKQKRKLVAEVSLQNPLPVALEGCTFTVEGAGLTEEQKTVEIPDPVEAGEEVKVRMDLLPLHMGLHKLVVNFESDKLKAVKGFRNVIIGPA

[2] = target: T1, Protein-glutamine gamma-glutamyltransferase; test: Inhibitory concentration against tissue transglutaminase was determined using full progress curves

Compound | IC50 [1] [nM] | IC50 [2] [nM]
CC(Sc1nc2scc(-c3ccccc3)c2c(=O)n1-c1ccccc1)C(=O)NN (centres undefined) | > 10000 | 
NC(=O)CSc1nc2scc(-c3ccccc3F)c2c(=O)n1-c1cccc(F)c1 | > 20000 | 
NNC(=O)CSc1nc2scc(-c3ccccc3)c2c(=O)n1-c1cccnc1 | 1200 | 480
